Measurements published in PubChem BioAssay (NCI).
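Tested at 5 concentrations; 48 h exposure; 96-well plates; endpoints linearly interpolated, else capped at highest concentration. TGI: concentration producing complete growth inhibition.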

Legend:
Assay in all cases: NCI tumour cell line growth inhibition, 48 h
[1] = test system: 786-0 renal
[2] = test system: A498 renal
[3] = test system: A549 NSCLC
[4] = test system: ACHN renal
[5] = test system: BT-549 breast
[6] = test system: CAKI-1 renal
[7] = test system: CCRF-CEM leukemia
[8] = test system: COLO 205 colon
[9] = test system: DU-145 prostate
[10] = test system: EKVX NSCLC
[11] = test system: HCC-2998 colon
[12] = test system: HCT-116 colon
[13] = test system: HCT-15 colon
[14] = test system: HL-60(TB) leukemia
[15] = test system: HOP-62 NSCLC
[16] = test system: HOP-92 NSCLC
[17] = test system: HS 578T breast
[18] = test system: HT29 colon
[19] = test system: IGROV1 ovarian
[20] = test system: K-562 leukemia
[21] = test system: KM12 colon
[22] = test system: LOX IMVI melanoma
[23] = test system: M14 melanoma
[24] = test system: MALME-3M melanoma
[25] = test system: MCF7 breast
[26] = test system: MDA-MB-435
[27] = test system: MDA-N
[28] = test system: MOLT-4 leukemia
[29] = test system: NCI-H226 lung
[30] = test system: NCI-H23 lung
[31] = test system: NCI-H460 lung
[32] = test system: NCI-H522 lung
[33] = test system: NCI/ADR-RES ovarian
[34] = test system: OVCAR-3 ovarian
[35] = test system: OVCAR-4 ovarian
[36] = test system: OVCAR-5 ovarian
[37] = test system: OVCAR-8 ovarian
[38] = test system: PC-3 prostate
[39] = test system: RPMI-8226 leukemia
[40] = test system: RXF 393 renal
[41] = test system: SF-268 CNS
[42] = test system: SF-295 CNS
[43] = test system: SF-539 CNS
[44] = test system: SK-MEL-2 melanoma
[45] = test system: SK-MEL-28 melanoma
[46] = test system: SK-MEL-5 melanoma
[47] = test system: SK-OV-3 ovarian
[48] = test system: SN12C renal
[49] = test system: SNB-19 CNS
[50] = test system: SNB-75 CNS
[51] = test system: SR leukemia
[52] = test system: SW-620 colon
[53] = test system: T-47D breast
[54] = test system: UACC-257 melanoma
[55] = test system: UACC-62 melanoma
[56] = test system: UO-31 renal
[57] = test system: TK-10 renal
[58] = test system: U251 CNS

For `C[C@]12CC[C@H](O)CC1=CC[C@@H]1[C@@H]2CC[C@]2(C)C(=N/O)/C(=C/c3ccc([N+](=O)[O-])cc3)C[C@@H]12`, the TGI [1] was 7.67 µM, the TGI [2] was 11.7 µM and the TGI [3] was 17.7 µM. It also gave a TGI [4] of 15.1 µM, a TGI [5] of 26.3 µM and a TGI [6] of 32.9 µM. The TGI [7] was over 100 µM, the TGI [8] was 15.7 µM and the TGI [9] was 21.6 µM. For the same compound, the TGI [10] was 7.37 µM, the TGI [11] was 23 µM and the TGI [12] was 15.7 µM. It also gave a TGI [13] of 29.8 µM, a TGI [14] of 25 µM and a TGI [15] of 21.1 µM. It also gave a TGI [16] of 14.9 µM, a TGI [17] of 63.5 µM and a TGI [18] of 23.5 µM. The TGI [19] was 26.7 µM, the TGI [20] was 59.9 µM and the TGI [21] was 60.1 µM. It also gave a TGI [22] of 21.5 µM, a TGI [23] of 21.1 µM and a TGI [24] of 22.1 µM. For the same compound, the TGI [25] was 18.2 µM, the TGI [26] was 40.8 µM and the TGI [27] was 28.4 µM. It also gave a TGI [28] of 20.5 µM, a TGI [29] of 6.59 µM and a TGI [30] of 25.6 µM. The TGI [31] was 18.5 µM, the TGI [32] was 16.4 µM and the TGI [33] was 25.9 µM. The TGI [34] was 5.06 µM, the TGI [35] was over 100 µM and the TGI [36] was 21.5 µM. For the same compound, the TGI [37] was 9.75 µM, the TGI [38] was 14.3 µM and the TGI [39] was 50.6 µM. For the same compound, the TGI [40] was 15.6 µM, the TGI [41] was 24.8 µM and the TGI [42] was 10.7 µM. It also gave a TGI [43] of 19.3 µM, a TGI [44] of 15.5 µM and a TGI [45] of 22.8 µM. The TGI [46] was 3.32 µM, the TGI [47] was 22.5 µM and the TGI [48] was 7.14 µM. The TGI [49] was 22.4 µM, the TGI [50] was 18 µM and the TGI [51] was 22.5 µM. For the same compound, the TGI [52] was over 100 µM, the TGI [53] was 30.5 µM and the TGI [54] was 16.5 µM. It also gave a TGI [55] of 28.6 µM and a TGI [56] of 24.7 µM.

For `COc1cc(N(Cc2ccc3nc(OC)c(OC)nc3c2)Cc2ccc3nc(OC)c(OC)nc3c2)cc(OC)c1OC`, the TGI [1] was over 50 µM, the TGI [3] was over 50 µM and the TGI [4] was over 50 µM. It also gave a TGI [5] of over 50 µM, a TGI [6] of over 50 µM and a TGI [8] of over 50 µM. For the same compound, the TGI [9] was over 50 µM, the TGI [10] was over 50 µM and the TGI [12] was over 50 µM. It also gave a TGI [13] of over 50 µM, a TGI [14] of over 50 µM and a TGI [15] of over 50 µM. For the same compound, the TGI [17] was 27.2 µM, the TGI [18] was over 50 µM and the TGI [21] was over 50 µM. It also gave a TGI [22] of over 50 µM, a TGI [23] of over 50 µM and a TGI [24] of over 50 µM. The TGI [25] was over 50 µM, the TGI [26] was over 50 µM and the TGI [27] was over 50 µM. For the same compound, the TGI [28] was over 50 µM, the TGI [29] was over 50 µM and the TGI [30] was over 50 µM. It also gave a TGI [32] of over 50 µM, a TGI [33] of over 50 µM and a TGI [34] of over 50 µM. The TGI [35] was over 50 µM, the TGI [36] was over 50 µM and the TGI [37] was over 50 µM. The TGI [38] was over 50 µM, the TGI [39] was over 50 µM and the TGI [40] was 41.6 µM. The TGI [41] was over 50 µM, the TGI [42] was over 50 µM and the TGI [43] was over 50 µM. It also gave a TGI [44] of over 50 µM, a TGI [45] of over 50 µM and a TGI [46] of over 50 µM. For the same compound, the TGI [47] was over 50 µM, the TGI [48] was over 50 µM and the TGI [49] was 47.7 µM. It also gave a TGI [50] of 15.6 µM, a TGI [51] of over 50 µM and a TGI [52] of over 50 µM. For the same compound, the TGI [53] was over 50 µM, the TGI [57] was over 50 µM and the TGI [58] was over 50 µM. The TGI [54] was over 50 µM, the TGI [55] was over 50 µM and the TGI [56] was over 50 µM.
